Measurements: EP0475413B1, “Carbocyclic nucleoside analogs useful as immunosuppressants” (HOECHST MARION ROUSSEL, INC., priority 1990, dated 1992)
Counter-ions that a name gives are not always drawn.

Legend:
[1] = system: Rat peritoneal macrophages; assay: Inhibition of priming of rat peritoneal macrophages, Superoxide Anion (O2-) assay; type: cell-based; conditions: Peritoneal macrophage, opsonized zymosan (3 mg/mL) as stimulus, rrIFN-γ (1000Units/mL), compound 0 to 1000µM, superoxide anion readout, read-out: IC₅₀ (inhibits the priming of rat macrophages in vitro)
Description: Rat peritoneal macrophages were isolated and grown in cell culture essentially as described by Edwards et al. [Science 239, 769 (1988)]. Macrophages were incubated along with opsonized zymosan (3 mg/mL), which acts as a particulate stimulus, and recombinant rat γ-interferon (rrIFN-γ)(1000Units/mL), which acts as an activating lymphokine, in the presence of various concentrations of (1R,3S)-Cis-1-(9-adenyl)-3-hydroxy-4-cyclopentene (0 to 1000µM). The degree of macrophage priming was measured using the Superoxide Anion (O₂⁻) assay as described by Edwards et al. [Science 239, 769 (1988)].

[2] = system: rat PMNs; assay: Inhibition of rrIFN-γ priming of rat PMN, Superoxide Anion (O2-) assay; type: cell-based; conditions: PMNs from rat air pouch elicited with rHuIL-1 (25ng/pouch); PMA (200ng/mL) as stimulus, rrIFN-γ (1000 Units/mL); compound 0 to 1000µM; superoxide anion readout; read-out: IC₅₀ (inhibits the rrIFN-γ priming of rat PMN in vitro)
Description: The rat air pouch model of inflammation was used to obtain rat PMNs using 25ng/pouch of recombinant human interleukin-1 (rHuIL-1) to elicit the cells essentially according to the method of Esser et al. [Internat. J. Tissue Reactions XI, 291 (1989)]. PMNs were incubated along with phorbol myristate acetate (PMA) (200ng/mL), which acts as a soluble stimulus, and rrIFN-γ (1000 Units/mL), which act as a stimulatory lymphokine, in the presence of various concentrations of (1R,3S)-Cis-1-(9-adenyl)-3-hydroxy-4-cyclopentene (0 to 1000µM). The degree of macrophage priming was measured using the Superoxide Anion (O₂⁻) assay as described by Edwards et al. [Science 239, 769 (1988)].

Q: Which IC50 [1] does the source give for Nc1ncnc2c1ncn2[C@H]1C=C[C@@H](O)C1 [Example 1, (1R,3S)-Cis-1-(9-adenyl)-3-hydroxy-4-cyclopentene hydrochloride] here?
A: 25 µM

Q: And the IC50 [2]?
A: 0.015 µM
